In one assay the test system is MCF-7 cells. The experiment in a line: Breast cancer cell viability assay (CellTiter-Glo, 5 days). It counts as cell-based. The settings on record: 5 days' compound exposure; for IC50: Homo sapiens, MCF7, 120 h. The procedure, abridged: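 MCF-7 cells, 320 per well in RPMI with 10% FBS and 20 mM HEPES, adhered overnight, then exposed 5 days to an eleven-point semilog dilution (final 0.3-0.000003 μM). CellTiter-Glo luminescence read; % viability = (sample − cell-free background)/(untreated − background) × 100.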

Another assay has as its target T1, ER-α in MCF-7 cells (Homo sapiens, UniProt P03372).
T1 sequence (P03372 1-595): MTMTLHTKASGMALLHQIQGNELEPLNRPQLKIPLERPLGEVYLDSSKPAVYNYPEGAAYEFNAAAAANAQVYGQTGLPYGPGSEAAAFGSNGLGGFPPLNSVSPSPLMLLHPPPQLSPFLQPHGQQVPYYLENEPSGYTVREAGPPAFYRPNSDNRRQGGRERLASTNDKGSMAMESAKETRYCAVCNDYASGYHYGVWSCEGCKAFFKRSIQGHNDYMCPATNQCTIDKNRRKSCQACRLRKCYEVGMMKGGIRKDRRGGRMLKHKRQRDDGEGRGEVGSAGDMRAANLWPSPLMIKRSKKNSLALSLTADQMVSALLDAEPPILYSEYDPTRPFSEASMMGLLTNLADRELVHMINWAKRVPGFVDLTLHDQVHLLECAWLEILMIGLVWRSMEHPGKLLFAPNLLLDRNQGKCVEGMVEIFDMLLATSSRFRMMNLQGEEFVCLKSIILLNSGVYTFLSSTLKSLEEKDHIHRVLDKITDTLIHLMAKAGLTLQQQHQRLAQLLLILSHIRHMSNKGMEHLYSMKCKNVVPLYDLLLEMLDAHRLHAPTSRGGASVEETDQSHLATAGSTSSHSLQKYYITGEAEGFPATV
Description: Breast cancer cell ER-α in cell western assay (SP1). It counts as cell-based. Also noted: endogenous in cells; host or cells: MCF-7. The settings on record: 4 or 24 hr post compound addition; for Emax: MCF7, SP1 antibody, read-out: ER-α In Cell Western Assay (SP1) Max Response; for DC50: SP1 antibody, read-out: ER-α In Cell Western Assay (SP1) IC50. Summed up:
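Percent remaining ER: SP1 immunofluorescence normalized to DRAQ5 nuclear stain, compared with untreated controls. Treatment lasted 4 or 24 hr across 0.3–0.000003 μM final in MCF-7.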

What is called IC50 is the concentration needed to halve the response being measured.

On to `CC/C(=C(/c1ccc(/C=C/C(=O)O)cc1)c1ccc2[nH]ncc2c1)c1cccc(-c2ccccn2)c1` [Compound 390, (E)-3-(4-((E)-1-(1H-Indazol-5-yl)-2-(3-(pyridin-2-yl)phenyl)but-1-en-1-yl)phenyl)acrylic acid], for which, in the assay on MCF-7 cells, the “MCF7 Viability Assay Max Response” value is “++ (++ = a single % value ≧ 40%)” and the IC50 is at most 100 nM. Moreover, on ER-α in MCF-7 cells, the Emax was at least 40% and the DC50 was at most 100 nM.
With `CC/C(=C(/c1ccc(/C=C/C(=O)O)cc1)c1ccc2[nH]ncc2c1)c1ccc(Oc2ccccc2)cc1` [Compound 263, (E)-3-(4-((E)-1-(1H-Indazol-5-yl)-2-(4-phenoxyphenyl)but-1-en-1-yl)phenyl)acrylic acid], in the assay on MCF-7 cells, the “MCF7 Viability Assay Max Response” value is recorded as “++ (++ = a single % value ≧ 40%)” and the IC50 was at most 100 nM. For the same compound, at ER-α in MCF-7 cells, the Emax was at least 40% and the DC50 is at most 100 nM.
With `CC/C(=C(/c1ccc(/C=C/C(=O)O)cc1)c1cnc2[nH]ccc2c1)c1ccccc1` [Compound 68, (E)-3-(4-((E)-2-Phenyl-1-(1H-pyrrolo[2,3-b]pyridin-5-yl)but-1-en-1-yl)phenyl)acrylic acid], in the assay on MCF-7 cells, the “MCF7 Viability Assay Max Response” value is given as “++ (++ = a single % value ≧ 40%)” and the IC50 is over 100 nM. Also, at ER-α in MCF-7 cells, the Emax was at least 40% and the DC50 was over 100 nM.
Regarding `CC/C(=C(/c1ccc(/C=C/C(=O)O)cc1)c1ccc2[nH]ncc2c1)c1cccc(Oc2ccccc2)c1F` [Compound 298, (E)-3-(4-((E)-2-(2-Fluoro-3-phenoxyphenyl)-1-(1H-indazol-5-yl)but-1-en-1-yl)phenyl)acrylic acid], in the assay on MCF-7 cells, the “MCF7 Viability Assay Max Response” value is “++ (++ = a single % value ≧ 40%)” and the IC50 is at most 100 nM. In addition, at ER-α in MCF-7 cells, the Emax was at least 40% and the DC50 is at most 100 nM.
As to `CC/C(=C(/c1ccc(/C=C/C(=O)O)cc1)c1ccc2nonc2c1)c1ccccc1` [Compound 137, (E)-3-(4-((E)-1-(Benzo[c][1,2,5]oxadiazol-5-yl)-2-phenylbut-1-en-1-yl)phenyl)acrylic acid], in the assay on MCF-7 cells, the “MCF7 Viability Assay Max Response” value is listed as “+ (+ = a single % value < 40%)” and the IC50 is over 100 nM. On ER-α in MCF-7 cells, the Emax was at least 40% and the DC50 was over 100 nM.
On to `CCCCCOc1cccc(/C(CC)=C(\c2ccc(/C=C/C(=O)O)cc2)c2ccc3[nH]ncc3c2)c1` [Compound 349, (E)-3-(4-((E)-1-(1H-Indazol-5-yl)-2-(3-(pentyloxy)phenyl)but-1-en-1-yl)phenyl)acrylic acid], for which, in the assay on MCF-7 cells, the “MCF7 Viability Assay Max Response” value is given as “++ (++ = a single % value ≧ 40%)” and the IC50 was at most 100 nM. Moreover, on ER-α in MCF-7 cells, the Emax was at least 40% and the DC50 is at most 100 nM.
For the compound `CC/C(=C(/c1ccc(/C=C/C(=O)O)cc1)c1ccc2[nH]ncc2c1)c1cccc(-c2cccnc2)c1` [Compound 393, (E)-3-(4-((E)-1-(1H-Indazol-5-yl)-2-(3-(pyridin-3-yl)phenyl)but-1-en-1-yl)phenyl)acrylic acid], in the assay with MCF-7 cells, the “MCF7 Viability Assay Max Response” value is on record as “++ (++ = a single % value ≧ 40%)” and the IC50 is at most 100 nM. Besides, on ER-α in MCF-7 cells, the Emax is at least 40% and the DC50 is at most 100 nM.
For the compound `CC/C(=C(/c1ccc(/C=C/C(=O)O)cc1)c1ccc2[nH]nc(F)c2c1)c1ccncc1Cl` [Compound 306, (E)-3-(4-((E)-2-(3-Chloropyridin-4-yl)-1-(3-fluoro-1H-indazol-5-yl)but-1-en-1-yl)phenyl)acrylic acid], in the assay with MCF-7 cells, the “MCF7 Viability Assay Max Response” value is listed as “++ (++ = a single % value ≧ 40%)” and the IC50 is at most 100 nM. On ER-α in MCF-7 cells, the Emax is at least 40% and the DC50 was at most 100 nM.
For the compound `CC/C(=C(/c1ccc(/C=C/C(=O)NS(=O)(=O)c2cccnc2)cc1)c1ccc2[nH]ncc2c1)c1ccc(F)cc1Cl` [Compound 433, (E)-3-(4-((E)-2-(2-Chloro-4-fluorophenyl)-1-(1H-indazol-5-yl)but-1-en-1-yl)phenyl)-N-(pyridin-3-ylsulfonyl)acrylamide], in the assay with MCF-7 cells, the “MCF7 Viability Assay Max Response” value is recorded as “++ (++ = a single % value ≧ 40%)” and the IC50 was at most 100 nM. At ER-α in MCF-7 cells, the Emax was at least 40% and the DC50 is at most 100 nM.
`CC/C(=C(/c1ccc(/C=C/C(=O)O)cc1)c1ccc2[nH]ncc2c1)c1cscc1C` [Compound 223, (E)-3-(4-((E)-1-(1H-Indazol-5-yl)-2-(4-methylthiophen-3-yl)but-1-en-1-yl)phenyl)acrylic acid]: in the assay with MCF-7 cells, the “MCF7 Viability Assay Max Response” value was “++ (++ = a single % value ≧ 40%)” and the IC50 was at most 100 nM. The Emax on ER-α in MCF-7 cells was at least 40%.
With `CC/C(=C(/c1ccc(/C=C/C(=O)O)cc1)c1ccc2[nH]ncc2c1)c1cccc(Oc2cccc(S(C)(=O)=O)c2)c1` [Compound 321, (E)-3-(4-((E)-1-(1H-Indazol-5-yl)-2-(3-(3-(methylsulfonyl)phenoxy)phenyl)but-1-en-1-yl)phenyl)acrylic acid], in the assay on MCF-7 cells, the “MCF7 Viability Assay Max Response” value is on record as “++ (++ = a single % value ≧ 40%)” and the IC50 is at most 100 nM. Further, at ER-α in MCF-7 cells, the Emax is at least 40% and the DC50 is at most 100 nM.
For the compound `CC/C(=C(/c1ccc(/C=C/c2nn[nH]n2)cc1)c1ccc2scnc2c1)c1ccccc1` [Compound 444, 5-((E)-1-(4-((E)-2-(2H-Tetrazol-5-yl)vinyl)phenyl)-2-phenylbut-1-en-1-yl)benzo[d]thiazole], in the assay with MCF-7 cells, the “MCF7 Viability Assay Max Response” value is “++ (++ = a single % value ≧ 40%)” and the IC50 is over 100 nM. In addition, on ER-α in MCF-7 cells, the Emax is at least 40% and the DC50 is at most 100 nM.
As for `CC/C(=C(/c1ccc(/C=C/c2nn[nH]n2)cc1)c1ccc2scnc2c1)c1cscc1C` [Compound 447, 5-((E)-1-(4-((E)-2-(2H-Tetrazol-5-yl)vinyl)phenyl)-2-(4-methylthiophen-3-yl)but-1-en-1-yl)benzo[d]thiazole], in the assay with MCF-7 cells, the “MCF7 Viability Assay Max Response” value is listed as “++ (++ = a single % value ≧ 40%)” and the IC50 is at most 100 nM. Moreover, on ER-α in MCF-7 cells, the Emax is at least 40% and the DC50 was at most 100 nM.
Consider `CC/C(=C(/c1ccc(/C=C/C(=O)O)cc1)c1ccc2scnc2c1)c1ccc(F)cc1C` [Compound 282, (E)-3-(4-((E)-1-(Benzo[d]thiazol-5-yl)-2-(4-fluoro-2-methylphenyl)but-1-en-1-yl)phenyl)acrylic acid], for which, in the assay on MCF-7 cells, the “MCF7 Viability Assay Max Response” value is on record as “++ (++ = a single % value ≧ 40%)” and the IC50 is at most 100 nM. For the same compound, at ER-α in MCF-7 cells, the Emax was at least 40% and the DC50 is at most 100 nM.
Turning to `CC/C(=C(/c1ccc(/C=C/C(=O)O)cc1)c1ccc2c[nH]c(=O)cc2c1)c1ccccc1` [Compound 90, (E)-3-(4-((E)-1-(3-Oxo-2,3-dihydroisoquinolin-6-yl)-2-phenylbut-1-en-1-yl)phenyl)acrylic acid], in the assay with MCF-7 cells, the “MCF7 Viability Assay Max Response” value is given as “++ (++ = a single % value ≧ 40%)” and the IC50 was over 100 nM. Besides, at ER-α in MCF-7 cells, the Emax was at least 40% and the DC50 is over 100 nM.
Take `CC/C(=C(/c1ccc(/C=C/C(=O)O)cc1)c1ccc2c(c1)C(=O)NC2)c1ccccc1` [Compound 104, (E)-3-(4-((E)-1-(3-Oxoisoindolin-5-yl)-2-phenylbut-1-en-1-yl)phenyl)acrylic acid]: in the assay with MCF-7 cells, the “MCF7 Viability Assay Max Response” value is given as “++ (++ = a single % value ≧ 40%)” and the IC50 was over 100 nM. On ER-α in MCF-7 cells, the Emax was at least 40% and the DC50 was over 100 nM.
Take `CC/C(=C(/c1ccc(/C=C/C(=O)Nc2nn[nH]n2)cc1)c1ccc2[nH]ncc2c1)c1ccc(F)cc1Cl` [Compound 425, (E)-3-(4-((E)-2-(2-Chloro-4-fluorophenyl)-1-(1H-indazol-5-yl)but-1-en-1-yl)phenyl)-N-(2H-tetrazol-5-yl)acrylamide]: in the assay with MCF-7 cells, the “MCF7 Viability Assay Max Response” value was “++ (++ = a single % value ≧ 40%)” and the IC50 was at most 100 nM. At ER-α in MCF-7 cells, the Emax is at least 40% and the DC50 is at most 100 nM.
Regarding `CC/C(=C(/c1ccc(/C=C/C(=O)O)cc1)c1ccc2[nH]ncc2c1)c1ccc2cn[nH]c2c1` [Compound 251, (E)-3-(4-((E)-1-(1H-Indazol-5-yl)-2-(1H-indazol-6-yl)but-1-en-1-yl)phenyl)acrylic acid], in the assay on MCF-7 cells, the “MCF7 Viability Assay Max Response” value is on record as “++ (++ = a single % value ≧ 40%)” and the IC50 was over 100 nM. At ER-α in MCF-7 cells, the Emax is at least 40% and the DC50 is over 100 nM.
Regarding `CC/C(=C(/c1ccc(/C=C/C(=O)O)cc1)c1ccc2scnc2c1)c1cscc1C` [Compound 276, (E)-3-(4-((E)-1-(Benzo[d]thiazol-5-yl)-2-(4-methylthiophen-3-yl)but-1-en-1-yl)phenyl)acrylic acid], in the assay on MCF-7 cells, the “MCF7 Viability Assay Max Response” value is on record as “++ (++ = a single % value ≧ 40%)” and the IC50 is at most 100 nM. In addition, at ER-α in MCF-7 cells, the Emax is at least 40% and the DC50 was at most 100 nM.

The record behind these values is patent US9399646B2 (Genentech, Inc., priority 2010, dated 2016).
